PubChem BioAssay AID1963968 (Molecular Pharmacology Branch, DTP, NCI, 2024)
Values joined by “and” are separate entries in the source; they are usually repeats but may differ in a detail not shown here. Equal values may be shown once.

Test system: 945468-187-T-J3-PDC spheroids with HUVEC/MSC, viability
Experiment: Anticancer human tumor 945468-187-T-J3-PDC patient-derived rectal carcinoma cell line growth inhibition [PI3K]
Settings: for viability, T/C: stronger effect = lower value; active means viability on the fitted dose curve at most 10% of control; inactive means the rest
Method in brief: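 Agents were dosed from a top concentration near clinical Cmax (otherwise 10 microM) in half-log decrements, alone or combined with PI3K inhibitors. The spheroids contain tumor cells plus endothelial (HUVEC) and MSC stroma; viability is measured.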

[1] = curve of first compound, second compound 0.0316 µM
[2] = curve of first compound, second compound 0.1 µM
[3] = curve of first compound, second compound 0.316 µM
[4] = curve of first compound, second compound 1 µM
[5] = curve of first compound, second compound 3.16 µM
[6] = curve of first compound, second compound 10 µM
[7] = second compound 0.0316 µM, first compound 0.00316 µM
[8] = second compound 0.0316 µM, first compound 0.01 µM
[9] = second compound 0.0316 µM, first compound 0.0316 µM
[10] = second compound 0.0316 µM, first compound 0.1 µM
[11] = second compound 0.0316 µM, first compound 0.316 µM
[12] = second compound 0.0316 µM, first compound 1 µM
[13] = second compound 0.1 µM, first compound 0.00316 µM
[14] = second compound 0.1 µM, first compound 0.01 µM
[15] = second compound 0.1 µM, first compound 0.0316 µM
[16] = second compound 0.1 µM, first compound 0.1 µM
[17] = second compound 0.1 µM, first compound 0.316 µM
[18] = second compound 0.1 µM, first compound 1 µM
[19] = second compound 0.316 µM, first compound 0.00316 µM
[20] = second compound 0.316 µM, first compound 0.01 µM
[21] = second compound 0.316 µM, first compound 0.0316 µM
[22] = second compound 0.316 µM, first compound 0.1 µM
[23] = second compound 0.316 µM, first compound 0.316 µM
[24] = second compound 0.316 µM, first compound 1 µM
[25] = second compound 1 µM, first compound 0.00316 µM
[26] = second compound 1 µM, first compound 0.01 µM
[27] = second compound 1 µM, first compound 0.0316 µM
[28] = second compound 1 µM, first compound 0.1 µM
[29] = second compound 1 µM, first compound 0.316 µM
[30] = second compound 1 µM, first compound 1 µM
[31] = second compound 3.16 µM, first compound 0.00316 µM
[32] = second compound 3.16 µM, first compound 0.01 µM
[33] = second compound 3.16 µM, first compound 0.0316 µM
[34] = second compound 3.16 µM, first compound 0.1 µM
[35] = second compound 10 µM, first compound 0.00316 µM
[36] = second compound 10 µM, first compound 0.01 µM
[37] = second compound 10 µM, first compound 0.0316 µM
[38] = second compound 10 µM, first compound 0.1 µM
[39] = curve of first compound, second compound 0.00316 µM
[40] = curve of first compound, second compound 0.01 µM
[41] = second compound 0.00316 µM, first compound 0.0316 µM
[42] = second compound 0.00316 µM, first compound 0.1 µM
[43] = second compound 0.00316 µM, first compound 0.316 µM
[44] = second compound 0.00316 µM, first compound 1 µM
[45] = second compound 0.00316 µM, first compound 3.16 µM
[46] = second compound 0.00316 µM, first compound 10 µM
[47] = second compound 0.01 µM, first compound 0.0316 µM
[48] = second compound 0.01 µM, first compound 0.1 µM
[49] = second compound 0.01 µM, first compound 0.316 µM
[50] = second compound 0.01 µM, first compound 1 µM
[51] = second compound 0.01 µM, first compound 3.16 µM
[52] = second compound 0.01 µM, first compound 10 µM
[53] = second compound 0.0316 µM, first compound 3.16 µM
[54] = second compound 0.0316 µM, first compound 10 µM
[55] = second compound 0.1 µM, first compound 3.16 µM
[56] = second compound 0.1 µM, first compound 10 µM
[57] = second compound 0.316 µM, first compound 3.16 µM
[58] = second compound 0.316 µM, first compound 10 µM
[59] = second compound 1 µM, first compound 3.16 µM
[60] = second compound 1 µM, first compound 10 µM
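Further: spheroids exposed to agents for 7 days before viability read.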
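Wherever viability, T/C is given: 100% = DMSO vehicle control viability.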

CCN1CCN(Cc2ccc(Nc3ncc(F)c(-c4cc(F)c5nc(C)n(C(C)C)c5c4)n3)nc2)CC1 + CC(Nc1ncnc2nc[nH]c12)c1cc2cccc(Cl)c2c(=O)n1-c1ccccc1
inactive: viability, T/C [7] 88.7% | viability, T/C [8] 110% | viability, T/C [9] 107% | viability, T/C [10] 94% | viability, T/C [11] 102% | viability, T/C [12] 79.2% | viability, T/C [13] 91.5% | viability, T/C [14] 85.3% | viability, T/C [15] 99% | viability, T/C [16] 99.5% | viability, T/C [17] 102% | viability, T/C [18] 72% | viability, T/C [19] 97.3% | viability, T/C [20] 91% | viability, T/C [21] 89.8% | viability, T/C [22] 113% | viability, T/C [23] 106% | viability, T/C [24] 72.8% | viability, T/C [25] 87.8% | viability, T/C [26] 95.9% | viability, T/C [27] 91.3% | viability, T/C [28] 103% | viability, T/C [29] 93.8% | viability, T/C [30] 69.2% | viability, T/C [31] 93.9% | viability, T/C [32] 101% | viability, T/C [33] 103% | viability, T/C [34] 95.1% | viability, T/C (second compound 3.16 µM, first compound 0.316 µM) 93% | viability, T/C (second compound 3.16 µM, first compound 1 µM) 52.5% | viability, T/C [35] 91.5% | viability, T/C [36] 89.5% | viability, T/C [37] 91% | viability, T/C [38] 106% | viability, T/C (second compound 10 µM, first compound 0.316 µM) 90% | viability, T/C (second compound 10 µM, first compound 1 µM) 37.1%
762 nM: IC50 [6]
> 1000 nM: IC50 [1] | IC50 [2] | IC50 [3] | IC50 [4] | IC50 [5]

Cc1nc(NC(=O)N2CCCC2C(N)=O)sc1-c1ccnc(C(C)(C)C(F)(F)F)c1 (configuration not stated)
> 10000 nM: IC50 (compound alone, run of 06/12/2023)
inactive: viability, T/C (compound 0.0316 µM) 90% [middle of 7 runs] | viability, T/C (compound 0.1 µM) 96% [middle of 8 runs] | viability, T/C (compound 0.316 µM) 99.1% [middle of 8 runs] | viability, T/C (compound 1 µM) 103% [middle of 8 runs] | viability, T/C (compound 3.16 µM) 106% [middle of 8 runs] | viability, T/C (compound 10 µM) 62.1% [middle of 8 runs]

Cn1ncnc1[C@H]1c2n[nH]c(=O)c3cc(F)cc(c23)N[C@@H]1c1ccc(F)cc1 + CC(Nc1ncnc2nc[nH]c12)c1cc2cccc(Cl)c2c(=O)n1-c1ccccc1
> 100 nM: IC50 [1] | IC50 [2] | IC50 [3] | IC50 [4] | IC50 [5] | IC50 [6]
inactive: viability, T/C (second compound 0.0316 µM, first compound 0.000316 µM) 105% | viability, T/C (second compound 0.0316 µM, first compound 0.001 µM) 87.4% | viability, T/C [7] 91.7% | viability, T/C [8] 82.9% | viability, T/C [9] 101% | viability, T/C [10] 92.4% | viability, T/C (second compound 0.1 µM, first compound 0.000316 µM) 94.2% | viability, T/C (second compound 0.1 µM, first compound 0.001 µM) 87.8% | viability, T/C [13] 97.8% | viability, T/C [14] 85.6% | viability, T/C [15] 89.3% | viability, T/C [16] 97.8% | viability, T/C (second compound 0.316 µM, first compound 0.000316 µM) 97.5% | viability, T/C (second compound 0.316 µM, first compound 0.001 µM) 95.8% | viability, T/C [19] 90.1% | viability, T/C [20] 103% | viability, T/C [21] 88% | viability, T/C [22] 101% | viability, T/C (second compound 1 µM, first compound 0.000316 µM) 85.2% | viability, T/C (second compound 1 µM, first compound 0.001 µM) 109% | viability, T/C [25] 98.5% | viability, T/C [26] 86.8% | viability, T/C [27] 104% | viability, T/C [28] 105% | viability, T/C (second compound 3.16 µM, first compound 0.000316 µM) 103% | viability, T/C (second compound 3.16 µM, first compound 0.001 µM) 99.8% | viability, T/C [31] 95.1% | viability, T/C [32] 100% | viability, T/C [33] 102% | viability, T/C [34] 104% | viability, T/C (second compound 10 µM, first compound 0.000316 µM) 101% | viability, T/C (second compound 10 µM, first compound 0.001 µM) 97.5% | viability, T/C [35] 106% | viability, T/C [36] 95.7% | viability, T/C [37] 96.9% | viability, T/C [38] 102%

CC(C)NCC(C(=O)N1CCN(c2ncnc3c2C(C)CC3O)CC1)c1ccc(Cl)cc1 (configuration not stated) + CC(Nc1ccc2c(c1)OCCn1cc(N3C(=O)OCC3C(F)F)nc1-2)C(N)=O
inactive: viability, T/C [41] 93.8% | viability, T/C [42] 93.9% | viability, T/C [43] 103% | viability, T/C [44] 91.6% | viability, T/C [45] 58.6% | viability, T/C [46] 48.5% | viability, T/C [47] 111% | viability, T/C [48] 103% | viability, T/C [49] 104% | viability, T/C [50] 96.7% | viability, T/C [51] 54.9% | viability, T/C [52] 59.2% | viability, T/C [9] 93.7% | viability, T/C [10] 91.8% | viability, T/C [11] 94.1% | viability, T/C [12] 90.9% | viability, T/C [53] 55.6% | viability, T/C [54] 47.3% | viability, T/C [15] 101% | viability, T/C [16] 93.4% | viability, T/C [17] 87% | viability, T/C [18] 76.4% | viability, T/C [55] 45% | viability, T/C [56] 31.5% | viability, T/C [21] 101% | viability, T/C [22] 89.3% | viability, T/C [23] 62.7% | viability, T/C [24] 49.6% | viability, T/C [57] 39% | viability, T/C [58] 29.3% | viability, T/C [27] 62.8% | viability, T/C [28] 70.4% | viability, T/C [29] 57.8% | viability, T/C [30] 57.3% | viability, T/C [59] 34.1% | viability, T/C [60] 26.7%
> 10000 nM: IC50 [40]
8440 nM: IC50 [39]
6850 nM: IC50 [1]
1380 nM: IC50 [4]
2810 nM: IC50 [2]
910 nM: IC50 [3]

CC1(C)CCC(CN2CCN(c3ccc(C(=O)NS(=O)(=O)c4ccc(NCC5CCOCC5)c([N+](=O)[O-])c4)c(Oc4cnc5[nH]ccc5c4)c3)CC2)=C(c2ccc(Cl)cc2)C1 + COc1c(OCCCN2CCOCC2)ccc2c3n(c(=NC(=O)c4cnc(N)nc4)nc12)CCN3
1110 nM: IC50 [2]
inactive: viability, T/C [41] 93.4% | viability, T/C [42] 106% | viability, T/C [43] 117% | viability, T/C [44] 91.1% | viability, T/C [45] 116% | viability, T/C [47] 103% | viability, T/C [48] 90.8% | viability, T/C [49] 93.1% | viability, T/C [50] 97.3% | viability, T/C [51] 119% | viability, T/C [52] 11.3% | viability, T/C [9] 107% | viability, T/C [10] 94% | viability, T/C [11] 114% | viability, T/C [12] 98.1% | viability, T/C [53] 106% | viability, T/C [54] 13.7% | viability, T/C [15] 54% | viability, T/C [16] 43.4% | viability, T/C [17] 50.4% | viability, T/C [18] 53% | viability, T/C [55] 48.5% | viability, T/C [21] 22.1% | viability, T/C [22] 20.7% | viability, T/C [23] 18.1% | viability, T/C [24] 24.3% | viability, T/C [57] 25.7% | viability, T/C [58] 5.28% | viability, T/C [27] 16.7% | viability, T/C [28] 17.9% | viability, T/C [29] 17.8% | viability, T/C [30] 19.7% | viability, T/C [59] 17.7% | viability, T/C [60] 3.81%
6080 nM: IC50 [40]
< 31.6 nM: IC50 [3] | IC50 [4]
active: viability, T/C [46] 8% | viability, T/C [56] 8.54%
6060 nM: IC50 [39]
6290 nM: IC50 [1]

CCN1CCN(Cc2ccc(Nc3ncc(F)c(-c4cc(F)c5nc(C)n(C(C)C)c5c4)n3)nc2)CC1
inactive: viability, T/C (compound 0.00316 µM) 91.2% [middle of 4 runs] | viability, T/C (compound 0.01 µM) 103% and 85.4% and 90.3% (2×) | viability, T/C (compound 0.0316 µM) 97.6% [middle of 4 runs] | viability, T/C (compound 0.1 µM) 107% [middle of 4 runs] | viability, T/C (compound 0.316 µM) 110% [middle of 4 runs] | viability, T/C (compound 1 µM) 99.2% [middle of 4 runs]
> 1000 nM: IC50 (curve of compound)
